In brackets after ≈: the same amount, converted by molar mass.
Assays:
[1] = Cytotoxicity against mouse […] cells after 3 days by MTT assay; format: functional, cell-based; conditions: 72 h
[2] = Cytotoxicity against human SW480 cells after 3 days by MTT assay; format: functional, cell-based; conditions: SW480, 72 h
[3] = Cytotoxicity against human KB cells after 3 days by MTT assay; format: functional, cell-based; conditions: 72 h
[4] = Cytotoxicity against human HepG2 cells after 3 days by MTT assay; format: functional, cell-based; conditions: HepG2, 72 h
[5] = Cytotoxicity against human MCF7 cells after 3 days by MTT assay; format: functional, cell-based; conditions: MCF7, 72 h
[6] = Cytotoxicity against mouse NIH/3T3 cells after 3 days by MTT assay; format: toxicity, NIH3T3
[7] = Cytotoxicity against human Lu1 cells after 3 days by MTT assay; format: functional, cell-based; conditions: Lu1, 72 h
Klebsiella aerogenes = assay: Antibacterial activity against Enterobacter aerogenes ATCC 13048 after 18 to 20 hrs by two-fold microbroth dilution method; format: functional
Staphylococcus aureus [8] = assay: Antibacterial activity against methicillin-resistant Staphylococcus aureus 198-3 after 18 to 20 hrs by two-fold microbroth dilution method; format: functional
Bacillus subtilis = assay: Antibacterial activity against Bacillus subtilis ATCC 11774 after 18 to 20 hrs by two-fold microbroth dilution method; format: functional
Candida albicans = assay: Antifungal activity against Candida albicans ATCC 7754 after 72 hrs by agar dilution method; format: functional; conditions: ATCC 7754, 72 h
Staphylococcus aureus [9] = assay: Antibacterial activity against methicillin-resistant Staphylococcus aureus 198-1 after 18 to 20 hrs by two-fold microbroth dilution method; format: functional
Aspergillus niger = assay: Antifungal activity against Aspergillus niger 439 after 72 hrs by agar dilution method; format: functional; conditions: Aspergillus niger, 439, 72 h
Rattus norvegicus [10] = assay: (§1) Antioxidant activity in CCL4-intoxicated Wistar albino rat assessed as liver cytosolic catalase activity per mg protein at 100 mg/kg, ip administered for 7 consecutive days after DL-alpha-tocopherol acetate treatment followed by CCL4 dosing measured after 24 hrs by H2O2 based assay (reference value: 220.15 +/- 11.43 U); format: functional
[11] = test system: Staphylococcus epidermidis; assay: Antibacterial activity against Staphylococcus epidermidis ATCC 12228 after 18 to 20 hrs by two-fold microbroth dilution method; format: functional
Pseudomonas aeruginosa = assay: Antibacterial activity against Pseudomonas aeruginosa […] after 18 to 20 hrs by two-fold microbroth dilution method; format: functional
[12] = Antifungal activity against Saccharomyces cerevisiae SH20 after 72 hrs by agar dilution method; format: functional
Staphylococcus aureus [13] = assay: Antibacterial activity against Staphylococcus aureus ATCC 11632 after 18 to 20 hrs by two-fold microbroth dilution method; format: functional
Klebsiella pneumoniae = assay: Antibacterial activity against Klebsiella pneumoniae ATCC 4352 after 18 to 20 hrs by two-fold microbroth dilution method; format: functional
Rattus norvegicus [14] = assay: as §1, with “superoxide dismutase” for “catalase”, “xanthine” for “H2O2”, “5.27” for “220.15”, “0.22” for “11.43”; format: functional
Escherichia coli = assay: Antibacterial activity against Escherichia coli ATCC 25922 after 18 to 20 hrs by two-fold microbroth dilution method; format: functional
Rattus norvegicus [15] = assay: as §1, with “glutathione peroxidase” for “catalase”, “spectrophotometric analysis” for “assay”, “0.28” for “220.15”, “0.01” for “11.43”; format: functional
Staphylococcus aureus [16] = assay: Antibacterial activity against methicillin-resistant Staphylococcus aureus 198-2 after 18 to 20 hrs by two-fold microbroth dilution method; format: functional
[17] = Antifungal activity against Fusarium oxysporum M42 after 72 hrs by agar dilution method; format: functional

| Structure (SMILES) | MIC (Klebsiella aerogenes) | MIC (Staphylococcus aureus [8]) | MIC (Bacillus subtilis) | MIC (Candida albicans) | MIC (Staphylococcus aureus [9]) | MIC (Aspergillus niger) | Activity (Rattus norvegicus [10]) | MIC [11] | MIC (Pseudomonas aeruginosa) | MIC [12] | MIC (Staphylococcus aureus [13]) | MIC (Klebsiella pneumoniae) | Activity (Rattus norvegicus [14]) | MIC (Escherichia coli) | Activity (Rattus norvegicus [15]) | MIC (Staphylococcus aureus [16]) | MIC [17] | also measured |
| --- | --- | --- | --- | --- | --- | --- | --- | --- | --- | --- | --- | --- | --- | --- | --- | --- | --- | --- |
| Cc1c2ccncc2c(C)c2c1[nH]c1ccccc12 [ELLIPTECINE] | – | – | – | – | – | – | – | – | – | – | – | – | – | – | – | – | – | IC50 [1]: 1.27 µM; IC50 [2]: 750 nM; IC50 [3]: 0.52 µM; IC50 [4]: 1.95 µM; IC50 [5]: 530 nM; IC50 at 3 days [6]: 320 nM; IC50 [7]: 1.39 µM |
| CC(=O)OC[C@H]1O[C@@H](NC(=S)N/N=C2/C(=O)Nc3ccc(F)cc32)[C@H](OC(C)=O)[C@@H](OC(C)=O)[C@@H]1OC(C)=O | 50 µM (≈ 28.4 µg/mL) | 1.56 µM (≈ 0.887 µg/mL) | 3.12 µM (≈ 1.77 µg/mL) | 6.25 µM (≈ 3.55 µg/mL) | 1.56 µM (≈ 0.887 µg/mL) | 12.5 µM (≈ 7.11 µg/mL) | 379.56 U | 3.12 µM (≈ 1.77 µg/mL) | 50 µM (≈ 28.4 µg/mL) | 6.25 µM (≈ 3.55 µg/mL) | 3.12 µM (≈ 1.77 µg/mL) | 50 µM (≈ 28.4 µg/mL) | 9.84 U | 50 µM (≈ 28.4 µg/mL) | 0.39 U | 3.12 µM (≈ 1.77 µg/mL) | 12.5 µM (≈ 7.11 µg/mL) | – |
| CCCN1C(=O)/C(=N/NC(=S)N[C@@H]2O[C@H](COC(C)=O)[C@@H](OC(C)=O)[C@H](OC(C)=O)[C@H]2OC(C)=O)c2ccccc21 | 12.5 µM (≈ 7.41 µg/mL) | 100 µM (≈ 59.3 µg/mL) | 100 µM (≈ 59.3 µg/mL) | 400 µM (≈ 237 µg/mL) | 100 µM (≈ 59.3 µg/mL) | 50 µM (≈ 29.6 µg/mL) | 367.63 U | 100 µM (≈ 59.3 µg/mL) | 12.5 µM (≈ 7.41 µg/mL) | 400 µM (≈ 237 µg/mL) | 100 µM (≈ 59.3 µg/mL) | 12.5 µM (≈ 7.41 µg/mL) | 9.77 U | 12.5 µM (≈ 7.41 µg/mL) | 0.84 U | 100 µM (≈ 59.3 µg/mL) | 100 µM (≈ 59.3 µg/mL) | – |
| CC(=O)OC[C@H]1O[C@@H](NC(=S)N/N=C2/C(=O)Nc3ccc(C)cc32)[C@H](OC(C)=O)[C@@H](OC(C)=O)[C@@H]1OC(C)=O | 25 µM (≈ 14.1 µg/mL) | 12.5 µM (≈ 7.06 µg/mL) | 25 µM (≈ 14.1 µg/mL) | 100 µM (≈ 56.5 µg/mL) | 12.5 µM (≈ 7.06 µg/mL) | 100 µM (≈ 56.5 µg/mL) | 258.47 U | 12.5 µM (≈ 7.06 µg/mL) | 25 µM (≈ 14.1 µg/mL) | 25 µM (≈ 14.1 µg/mL) | 12.5 µM (≈ 7.06 µg/mL) | 25 µM (≈ 14.1 µg/mL) | 5.91 U | 25 µM (≈ 14.1 µg/mL) | 1.7 U | 12.5 µM (≈ 7.06 µg/mL) | 100 µM (≈ 56.5 µg/mL) | – |
| CC(=O)OC[C@H]1O[C@@H](NC(=S)N/N=C2/C(=O)N(C)c3ccccc32)[C@H](OC(C)=O)[C@@H](OC(C)=O)[C@@H]1OC(C)=O | 12.5 µM (≈ 7.06 µg/mL) | 100 µM (≈ 56.5 µg/mL) | 100 µM (≈ 56.5 µg/mL) | 100 µM (≈ 56.5 µg/mL) | 100 µM (≈ 56.5 µg/mL) | 25 µM (≈ 14.1 µg/mL) | 350 U | 100 µM (≈ 56.5 µg/mL) | 25 µM (≈ 14.1 µg/mL) | 100 µM (≈ 56.5 µg/mL) | 100 µM (≈ 56.5 µg/mL) | 12.5 µM (≈ 7.06 µg/mL) | 9.52 U | 12.5 µM (≈ 7.06 µg/mL) | 0.67 U | 100 µM (≈ 56.5 µg/mL) | 200 µM (≈ 113 µg/mL) | – |
| CC(=O)OC[C@H]1O[C@@H](NC(=S)N/N=C2/C(=O)Nc3ccc(Cl)cc32)[C@H](OC(C)=O)[C@@H](OC(C)=O)[C@@H]1OC(C)=O | 50 µM (≈ 29.2 µg/mL) | 0.78 µM (≈ 0.456 µg/mL) | 6.25 µM (≈ 3.66 µg/mL) | 12.5 µM (≈ 7.31 µg/mL) | 0.78 µM (≈ 0.456 µg/mL) | 12.5 µM (≈ 7.31 µg/mL) | 390.63 U | 6.25 µM (≈ 3.66 µg/mL) | 50 µM (≈ 29.2 µg/mL) | 12.5 µM (≈ 7.31 µg/mL) | 6.25 µM (≈ 3.66 µg/mL) | 50 µM (≈ 29.2 µg/mL) | 10.2 U | 50 µM (≈ 29.2 µg/mL) | 0.31 U | 0.78 µM (≈ 0.456 µg/mL) | 12.5 µM (≈ 7.31 µg/mL) | – |
| CC(=O)OC[C@H]1O[C@@H](NC(=S)N/N=C2/C(=O)Nc3ccc(I)cc32)[C@H](OC(C)=O)[C@@H](OC(C)=O)[C@@H]1OC(C)=O | 50 µM (≈ 33.8 µg/mL) | 6.25 µM (≈ 4.23 µg/mL) | 6.25 µM (≈ 4.23 µg/mL) | 6.25 µM (≈ 4.23 µg/mL) | 6.25 µM (≈ 4.23 µg/mL) | 6.25 µM (≈ 4.23 µg/mL) | 399.75 U | 6.25 µM (≈ 4.23 µg/mL) | 25 µM (≈ 16.9 µg/mL) | 6.25 µM (≈ 4.23 µg/mL) | 6.25 µM (≈ 4.23 µg/mL) | 25 µM (≈ 16.9 µg/mL) | 10.85 U | 50 µM (≈ 33.8 µg/mL) | 0.35 U | 6.25 µM (≈ 4.23 µg/mL) | 12.5 µM (≈ 8.46 µg/mL) | – |
| CC(=O)OC[C@H]1O[C@@H](NC(=S)N/N=C2/C(=O)Nc3c2cc(Br)cc3[N+](=O)[O-])[C@H](OC(C)=O)[C@@H](OC(C)=O)[C@@H]1OC(C)=O | 25 µM (≈ 16.9 µg/mL) | 6.25 µM (≈ 4.22 µg/mL) | 3.12 µM (≈ 2.1 µg/mL) | 12.5 µM (≈ 8.43 µg/mL) | 6.25 µM (≈ 4.22 µg/mL) | 12.5 µM (≈ 8.43 µg/mL) | 381.67 U | 6.25 µM (≈ 4.22 µg/mL) | 25 µM (≈ 16.9 µg/mL) | 12.5 µM (≈ 8.43 µg/mL) | 6.25 µM (≈ 4.22 µg/mL) | 25 µM (≈ 16.9 µg/mL) | 10.76 U | 25 µM (≈ 16.9 µg/mL) | 0.37 U | 6.25 µM (≈ 4.22 µg/mL) | 6.25 µM (≈ 4.22 µg/mL) | – |
| CC(=O)OC[C@H]1O[C@@H](NC(=S)N/N=C2/C(=O)Nc3c(Br)cc(Br)cc32)[C@H](OC(C)=O)[C@@H](OC(C)=O)[C@@H]1OC(C)=O | 50 µM (≈ 35.4 µg/mL) | 0.78 µM (≈ 0.553 µg/mL) | 1.56 µM (≈ 1.11 µg/mL) | 6.25 µM (≈ 4.43 µg/mL) | 0.78 µM (≈ 0.553 µg/mL) | 3.12 µM (≈ 2.21 µg/mL) | 397.53 U | 1.56 µM (≈ 1.11 µg/mL) | 50 µM (≈ 35.4 µg/mL) | 6.25 µM (≈ 4.43 µg/mL) | 1.56 µM (≈ 1.11 µg/mL) | 50 µM (≈ 35.4 µg/mL) | 10.89 U | 50 µM (≈ 35.4 µg/mL) | 0.31 U | 0.78 µM (≈ 0.553 µg/mL) | 12.5 µM (≈ 8.85 µg/mL) | IC50 [1]: 18.4 µM; IC50 [2]: 4750 nM; IC50 [3]: 12.8 µM; IC50 [4]: 8.41 µM; IC50 [5]: 2750 nM; IC50 at 3 days [6]: 1530 nM; IC50 [7]: 5.53 µM |

From ChEMBL document CHEMBL3872214, “Synthesis and evaluation of in vivo antioxidant, in vitro antibacterial, MRSA and antifungal activity of novel substituted isatin N-(2,3,4,6-tetra-O-acetyl-β-d-glucopyranosyl)thiosemicarbazones” (Eur J Med Chem, 2016)
